# Experimental data taken from patent publication US20040167181A1, “Methods of treating conditions associated with an Edg-3 receptor” (priority 2003, published 2004).
# Entries after “also recorded” stand apart in the source; their conditions may differ.
# Legend:
# [1] = biological target: T1, human Edg-3 receptors (Homo sapiens, UniProt Q99500); assay: Calcium response in HTC cells expressing human Edg-3 receptors; type: cell-based; details: HTC cells expressing human Edg-3 receptors (also tested in NIH 3T3 cell lines that naturally express Edg-3); FIG. 1
# T1 construct: expressed in transfected cells; host or cells: HTC (rat hepatoma) cells
# Excerpt: Specific assays for Edg-3 receptor activity are known to those of skill in the art. For example, cells expressing Edg-3 receptors can be contacted with a membrane-permeant calcium sensitive dye such as Fluo-4 AM or a proprietary calcium dye loading kit (e.g., FLIPR Calcium Assay kit, Molecular Devices, Sunnyvale, Calif.). Intracellular calcium is capable of binding to the dye and emitting fluorescent radiation when illuminated at the appropriate wavelength. The cells can thus be illuminated an appropriate wavelength for the dye and any emitting light can be captured by a cooled CCD camera. Changes in fluorescence indicate changes in intracellular calcium resulting from the activation of an Edg-3 receptor. Such changes can be measured advantageously in whole cells in “real-time” (Berridge et al., Nature Reviews 2000, 1:11-21).
# The compounds were tested in HTC cells expressing human Edg-3 receptors, as well as in NIH 3T3 cell lines that naturally express Edg-3 receptors. […] The compounds are tested in this recombinant system first, and subsequently tested in cell lines expressing Edg-3 (in addition to other Edg receptors).
# [2] = biological target: T2, Edg-1 (Homo sapiens, UniProt P21453); assay: S1P-stimulated calcium increases in HTC cells expressing Edg-1; type: cell-based; details: concentrations as high as 10 μM
# T2 construct: expressed in transfected cells; host or cells: HTC (rat hepatoma) cells
# [3] = biological target: T3, Edg-6 (Homo sapiens, UniProt O95977); assay: S1P-stimulated calcium increases in HTC cells expressing Edg-6; type: cell-based; details: concentrations as high as 10 μM
# T3 construct: expressed in transfected cells; host or cells: HTC (rat hepatoma) cells
# T3 sequence (O95977 1-384): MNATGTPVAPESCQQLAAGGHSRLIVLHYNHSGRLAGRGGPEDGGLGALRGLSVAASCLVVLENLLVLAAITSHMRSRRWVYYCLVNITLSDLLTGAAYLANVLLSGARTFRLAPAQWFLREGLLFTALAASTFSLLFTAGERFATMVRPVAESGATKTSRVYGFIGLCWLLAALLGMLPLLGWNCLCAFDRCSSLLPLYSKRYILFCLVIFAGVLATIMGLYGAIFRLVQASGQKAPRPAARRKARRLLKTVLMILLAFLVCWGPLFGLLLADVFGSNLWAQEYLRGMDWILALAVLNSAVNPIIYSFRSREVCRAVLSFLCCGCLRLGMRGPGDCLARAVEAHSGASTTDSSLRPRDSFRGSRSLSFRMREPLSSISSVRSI
# [4] = test system: Adrenergic α2; assay: Radioligand binding assay, Adrenergic α2; details: Wistar rat cerebral cortex; 0.7 nM 3H Rauwolscine; significance criteria ≦50% of max stimulation or inhibition
# Method: (§1) In order to test the selectivity of compounds, various radioligand binding assays were performed using numerous non-Edg receptor targets as listed below.
# (§2) A radioligand binding assay was performed using adrenergic α1 according to the method of Greengrass and Bremner 1979, Eur. J. Pharmacol. 55:323-326. A radioligand binding assay was performed using adrenergic α2 according to the method of Boyajian and Leslie, 1987, J. Pharmacol. Exp. Ther. 241:1092-1098. A radioligand binding assay was performed using adrenergic β according to the method of Feve et al., 1994, Proc. Natl. Acad. Sci. USA 91:5677-5681. A radioligand binding assay was performed using angiotensin AT2 according to the method of Whitebread et al., 1991, Biochem. Biophys. Res. Comm. 181:1365-1371. A radioligand binding assay was performed using calcium channel Type L, dihydropyridine according to the method of Ehlert et al., 1982, Life Sci. 30:2191-2202. A radioligand binding assay was performed using dopamine D2L according to the method of Bunzo et al., 1988, Nature 336:783-787. A radioligand binding assay was performed using endothelin ETA according to the method of Mihara et al., 1994, J. Pharmacol. Exp Ther. 268:1122-1127. A radioligand binding assay was performed using histamine H1 Central according to the method of Hill et al., 1978, J. Neurochem. 31:997-1004. […]
# (§3) Quantitation Method: Radioligand Binding […]
# [5] = biological target: T4, Edg-4 (Homo sapiens, UniProt Q9HBW0); assay: LPA-stimulated calcium increases in HTC cells expressing Edg-4; type: cell-based; details: concentrations as high as 10 μM
# T4 construct: expressed in transfected cells; host or cells: HTC (rat hepatoma) cells
# [6] = biological target: T5, Endothelin ETA (Homo sapiens, UniProt P25101); assay: Radioligand binding assay, Endothelin ETA; details: Human recombinant CHO cells; 0.03 nM 125 Endothelin; significance criteria ≦50% of max stimulation or inhibition
# T5 construct: expressed in transfected cells; host or cells: CHO cells
# T5 sequence (P25101 21-427): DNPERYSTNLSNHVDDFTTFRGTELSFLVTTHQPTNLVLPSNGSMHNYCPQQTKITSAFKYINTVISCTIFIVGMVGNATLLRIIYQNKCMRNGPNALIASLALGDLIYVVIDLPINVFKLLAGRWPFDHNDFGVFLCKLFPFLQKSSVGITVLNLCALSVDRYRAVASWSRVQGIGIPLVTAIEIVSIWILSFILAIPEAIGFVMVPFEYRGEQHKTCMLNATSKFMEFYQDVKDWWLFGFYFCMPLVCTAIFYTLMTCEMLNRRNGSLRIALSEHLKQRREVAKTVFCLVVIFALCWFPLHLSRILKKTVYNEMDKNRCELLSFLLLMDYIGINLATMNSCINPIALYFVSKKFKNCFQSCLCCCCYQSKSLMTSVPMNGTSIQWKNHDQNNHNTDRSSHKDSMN
# Method: as §1, §2, §3
# [7] = biological target: T6, Edg-8 (Homo sapiens, UniProt Q9H228); assay: S1P-stimulated calcium increases in HTC cells expressing Edg-8; type: cell-based; details: concentrations as high as 10 μM
# T6 construct: expressed in transfected cells; host or cells: HTC (rat hepatoma) cells
# [8] = biological target: T7, Edg-2 (Homo sapiens, UniProt Q92633); assay: LPA-stimulated calcium increases in HTC cells expressing Edg-2; type: cell-based; details: concentrations as high as 10 μM
# T7 construct: expressed in transfected cells; host or cells: HTC (rat hepatoma) cells
# [9] = test system: Calcium Channel Type L, Dihydropyridine; assay: Radioligand binding assay, Calcium Channel Type L, Dihydropyridine; details: Wistar Rat cerebral cortex; 0.1 nM 3H Nitrendipine; significance criteria ≦50% of max stimulation or inhibition
# Method: as §1, §2, §3
# [10] = biological target: T8, Edg-7 (Homo sapiens, UniProt Q9UBY5); assay: LPA-stimulated calcium increases in HTC cells expressing Edg-7; type: cell-based; details: concentrations as high as 10 μM
# T8 construct: expressed in transfected cells; host or cells: HTC (rat hepatoma) cells
# T8 sequence (Q9UBY5 1-353): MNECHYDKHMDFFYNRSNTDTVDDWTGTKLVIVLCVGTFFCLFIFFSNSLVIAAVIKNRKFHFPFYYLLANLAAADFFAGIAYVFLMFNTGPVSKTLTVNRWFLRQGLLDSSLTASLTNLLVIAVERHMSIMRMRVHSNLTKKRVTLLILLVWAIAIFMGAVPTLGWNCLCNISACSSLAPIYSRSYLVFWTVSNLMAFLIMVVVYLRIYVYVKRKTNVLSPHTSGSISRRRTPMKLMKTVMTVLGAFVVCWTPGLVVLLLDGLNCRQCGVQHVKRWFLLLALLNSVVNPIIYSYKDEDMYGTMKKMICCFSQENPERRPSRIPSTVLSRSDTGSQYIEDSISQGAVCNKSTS
# [11] = test system: Serotonin 5-HT1, non-selective; assay: Radioligand binding assay, Serotonin 5-HT1, non-selective; details: Wistar rat cerebral cortex; 2 nM 3H Serotonin (5-HT) Trifluoroacetate; significance criteria ≦50% of max stimulation or inhibition
# Method: as §1, §2, §3
# [12] = biological target: T9, Dopamine D2L (Homo sapiens, UniProt P14416); assay: Radioligand binding assay, Dopamine D2L; details: Human recombinant CHO cells; 0.16 nM 3H Spiperone; significance criteria ≦50% of max stimulation or inhibition
# T9 construct: expressed in transfected cells; host or cells: CHO cells
# Method: as §1, §2, §3
# [13] = biological target: T10, Histamine H1, Central (Cavia porcellus, UniProt P31389); assay: Radioligand binding assay, Histamine H1, Central; details: Guinea pig cerebellum; 1.75 nM 3H Pyrilamine; significance criteria ≦50% of max stimulation or inhibition
# T10 construct: from tissue; host or cells: Guinea pig cerebellum
# Method: as §1, §2, §3
# [14] = test system: Adrenergic α1, non-selective; assay: Radioligand binding assay, Adrenergic α1, non-selective; details: Wistar Rat brain; 0.25 nM 3H Prazosin; significance criteria ≦50% of max stimulation or inhibition
# Method: as §1, §2, §3
# [15] = test system: Adrenergic β; assay: Radioligand binding assay, Adrenergic β; details: Wistar rat brain; 0.25 nM 3H Dihydroaplenolol; significance criteria ≦50% of max stimulation or inhibition
# Method: as §1, §2, §3
# [16] = biological target: T11, Angiotensin AT2 (Homo sapiens, UniProt P50052); assay: Radioligand binding assay, Angiotensin AT2; details: Human recombinant Hela cells; 0.025 nM 125I CGP-42112A; significance criteria ≦50% of max stimulation or inhibition
# T11 construct: expressed in transfected cells; host or cells: Hela cells
# T11 sequence (P50052 1-363): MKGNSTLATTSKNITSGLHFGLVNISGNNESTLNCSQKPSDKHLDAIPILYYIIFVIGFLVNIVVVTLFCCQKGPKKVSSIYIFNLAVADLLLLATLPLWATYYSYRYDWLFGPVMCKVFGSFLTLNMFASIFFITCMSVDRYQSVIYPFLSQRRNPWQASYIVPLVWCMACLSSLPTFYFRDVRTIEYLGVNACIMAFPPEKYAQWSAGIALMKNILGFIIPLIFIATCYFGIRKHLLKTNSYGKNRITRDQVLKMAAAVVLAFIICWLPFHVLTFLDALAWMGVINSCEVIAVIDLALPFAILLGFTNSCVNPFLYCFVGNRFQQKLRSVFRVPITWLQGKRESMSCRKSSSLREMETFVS
# Method: as §1, §2, §3
# [17] = test system: Muscarinic non-selective, Central; type: binding; details: Wistar rat cerebral cortex; 0.29 nM 3H Quinuclidinyl benzilate; significance criteria ≦50% of max stimulation or inhibition
# [18] = biological target: T12, Edg-5 (Homo sapiens, UniProt O95136); assay: S1P-stimulated calcium increases in HTC cells expressing Edg-5; type: cell-based; details: concentrations as high as 10 μM
# T12 construct: expressed in transfected cells; host or cells: HTC (rat hepatoma) cells
# T12 sequence (O95136 whole entry, species assumed): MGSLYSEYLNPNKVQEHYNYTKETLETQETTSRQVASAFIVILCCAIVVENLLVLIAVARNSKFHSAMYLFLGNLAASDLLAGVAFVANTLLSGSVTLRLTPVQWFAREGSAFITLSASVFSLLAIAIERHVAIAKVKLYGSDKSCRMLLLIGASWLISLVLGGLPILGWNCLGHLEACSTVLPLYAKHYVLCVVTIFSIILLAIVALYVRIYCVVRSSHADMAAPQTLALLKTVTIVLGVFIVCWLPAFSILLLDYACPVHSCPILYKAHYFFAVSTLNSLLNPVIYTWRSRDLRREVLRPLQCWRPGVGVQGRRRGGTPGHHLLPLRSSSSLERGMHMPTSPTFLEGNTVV
# T1 sequence (Q99500 whole entry): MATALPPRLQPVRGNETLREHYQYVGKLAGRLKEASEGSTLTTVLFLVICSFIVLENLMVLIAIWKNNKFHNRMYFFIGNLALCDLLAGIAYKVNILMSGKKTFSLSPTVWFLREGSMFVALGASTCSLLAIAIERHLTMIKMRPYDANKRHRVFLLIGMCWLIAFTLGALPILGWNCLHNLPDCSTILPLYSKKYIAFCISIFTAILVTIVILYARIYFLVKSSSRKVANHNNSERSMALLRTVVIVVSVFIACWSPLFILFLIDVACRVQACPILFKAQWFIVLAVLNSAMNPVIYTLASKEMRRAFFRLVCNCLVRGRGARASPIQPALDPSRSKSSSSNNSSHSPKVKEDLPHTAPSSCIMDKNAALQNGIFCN
# T10 sequence (P31389 whole entry): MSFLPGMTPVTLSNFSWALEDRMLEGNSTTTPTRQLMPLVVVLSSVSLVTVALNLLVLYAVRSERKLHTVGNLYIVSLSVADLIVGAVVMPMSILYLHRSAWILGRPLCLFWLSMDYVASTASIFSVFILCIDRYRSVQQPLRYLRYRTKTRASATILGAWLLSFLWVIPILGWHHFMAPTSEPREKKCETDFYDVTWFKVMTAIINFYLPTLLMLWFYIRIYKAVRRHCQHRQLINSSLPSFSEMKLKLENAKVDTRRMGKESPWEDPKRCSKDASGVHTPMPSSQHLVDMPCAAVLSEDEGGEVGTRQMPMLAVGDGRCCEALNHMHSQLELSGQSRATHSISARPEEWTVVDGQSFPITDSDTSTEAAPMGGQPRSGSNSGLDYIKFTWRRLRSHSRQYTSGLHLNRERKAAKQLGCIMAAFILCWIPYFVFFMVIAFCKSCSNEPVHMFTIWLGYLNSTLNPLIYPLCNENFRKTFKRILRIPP
# T6 sequence (Q9H228 whole entry, species assumed): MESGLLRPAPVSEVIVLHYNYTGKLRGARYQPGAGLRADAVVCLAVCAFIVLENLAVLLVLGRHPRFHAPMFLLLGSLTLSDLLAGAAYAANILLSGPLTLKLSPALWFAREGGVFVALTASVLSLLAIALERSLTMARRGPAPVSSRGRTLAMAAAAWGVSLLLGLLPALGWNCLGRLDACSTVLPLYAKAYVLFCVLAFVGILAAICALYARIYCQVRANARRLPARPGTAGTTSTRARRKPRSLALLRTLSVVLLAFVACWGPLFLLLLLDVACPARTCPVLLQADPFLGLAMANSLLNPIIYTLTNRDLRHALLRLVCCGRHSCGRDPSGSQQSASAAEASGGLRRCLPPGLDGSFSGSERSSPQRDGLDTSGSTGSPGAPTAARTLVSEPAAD
# T9 sequence (P14416 whole entry): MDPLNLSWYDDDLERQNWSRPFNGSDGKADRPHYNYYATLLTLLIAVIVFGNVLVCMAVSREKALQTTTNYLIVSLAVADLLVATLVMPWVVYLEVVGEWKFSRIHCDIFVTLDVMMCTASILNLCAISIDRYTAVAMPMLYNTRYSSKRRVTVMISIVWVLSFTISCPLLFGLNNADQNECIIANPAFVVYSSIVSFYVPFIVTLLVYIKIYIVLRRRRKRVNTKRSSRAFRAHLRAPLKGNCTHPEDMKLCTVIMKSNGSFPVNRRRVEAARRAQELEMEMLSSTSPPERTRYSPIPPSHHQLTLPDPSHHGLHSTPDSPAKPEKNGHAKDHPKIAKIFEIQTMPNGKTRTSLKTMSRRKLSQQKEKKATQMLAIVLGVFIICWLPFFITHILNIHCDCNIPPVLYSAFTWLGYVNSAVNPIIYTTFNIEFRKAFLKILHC
# T4 sequence (Q9HBW0 whole entry, species assumed): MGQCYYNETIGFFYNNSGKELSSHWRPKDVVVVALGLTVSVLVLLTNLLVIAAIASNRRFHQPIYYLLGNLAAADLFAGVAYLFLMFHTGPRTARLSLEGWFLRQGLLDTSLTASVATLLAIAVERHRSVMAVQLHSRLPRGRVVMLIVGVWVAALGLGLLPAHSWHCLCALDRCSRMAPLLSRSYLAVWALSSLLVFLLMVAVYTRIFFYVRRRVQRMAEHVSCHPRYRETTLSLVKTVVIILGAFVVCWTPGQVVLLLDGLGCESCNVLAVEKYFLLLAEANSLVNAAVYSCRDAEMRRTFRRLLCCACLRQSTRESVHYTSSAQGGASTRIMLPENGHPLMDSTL
# T7 sequence (Q92633 whole entry): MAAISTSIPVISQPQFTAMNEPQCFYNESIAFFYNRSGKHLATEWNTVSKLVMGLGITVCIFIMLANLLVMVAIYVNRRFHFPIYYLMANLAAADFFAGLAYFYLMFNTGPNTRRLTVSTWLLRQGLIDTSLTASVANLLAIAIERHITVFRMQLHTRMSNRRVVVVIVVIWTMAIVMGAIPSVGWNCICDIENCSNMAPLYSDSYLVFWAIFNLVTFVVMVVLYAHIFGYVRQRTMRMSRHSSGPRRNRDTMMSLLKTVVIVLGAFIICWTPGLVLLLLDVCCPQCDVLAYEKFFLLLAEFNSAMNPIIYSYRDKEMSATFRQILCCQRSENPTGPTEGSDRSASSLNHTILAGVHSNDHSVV
# T2 sequence (P21453 whole entry): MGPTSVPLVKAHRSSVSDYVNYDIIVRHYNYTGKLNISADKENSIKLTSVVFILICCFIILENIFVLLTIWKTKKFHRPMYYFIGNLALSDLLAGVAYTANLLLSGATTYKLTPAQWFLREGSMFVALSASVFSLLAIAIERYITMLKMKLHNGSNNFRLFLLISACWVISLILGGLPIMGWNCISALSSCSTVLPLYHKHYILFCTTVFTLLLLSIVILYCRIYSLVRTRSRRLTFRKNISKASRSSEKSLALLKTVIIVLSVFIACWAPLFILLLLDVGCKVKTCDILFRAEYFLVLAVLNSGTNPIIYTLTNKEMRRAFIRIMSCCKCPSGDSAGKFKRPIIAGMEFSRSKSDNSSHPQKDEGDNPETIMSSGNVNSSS
structure (smiles),measurement,setting,value
Cc1c(-c2ccccc2)nc2ccccc2c1C(=O)NCc1ccc(F)cc1 [Compound 101],inhibition of Edg-3 stimulated SP1 responses,[1],demonstrate inhibition; also recorded: specifically inhibit
same,inhibition of S1P-stimulated calcium increases,[2],did not inhibit
same,inhibition of S1P-stimulated calcium increases,[3],did not inhibit
same,activity in radioligand binding assay,[4],no significant activity
same,inhibition of LPA-stimulated calcium increases,[5],did not inhibit
same,activity in radioligand binding assay,[6],no significant activity
same,inhibition of S1P-stimulated calcium increases,[7],did not inhibit
same,inhibition of LPA-stimulated calcium increases,[8],did not inhibit
same,activity in radioligand binding assay,[9],no significant activity
same,inhibition of LPA-stimulated calcium increases,[10],did not inhibit
same,activity in radioligand binding assay,[11],no significant activity
same,activity in radioligand binding assay,[12],no significant activity
same,activity in radioligand binding assay,[13],no significant activity
same,activity in radioligand binding assay,[14],no significant activity
same,activity in radioligand binding assay,[15],no significant activity
same,activity in radioligand binding assay,[16],no significant activity
same,activity in radioligand binding assay,[17],no significant activity
same,inhibition of S1P-stimulated calcium increases,[18],did not inhibit
